# “Also recorded” adds a separate entry of the source. Structures can show the parent of a compound that is named as a salt. Where two headings read alike, the source gives them in different places.
# Key:
# [1] = test system: Plasmodium cynomolgi (strain B); assay: Radical Curative Test in Rhesus Monkeys, SEATO Medical Research Laboratory; type: in vivo, Indian rhesus monkeys; conditions: for Radical Curative Activity, Cures (C): Table 1, Seato Rhesus; for Cures (C): Table 8, Seato
# Experimental: Radical Curative Test in Rhesus Monkeys, SEATO Medical Research Laboratory, Bangkok,
# This test is designed to evaluate the tissue schizonticidal (radical curative) activity of test compounds. Well-conditioned Indian rhesus monkeys of either sex weighing 2-4 Kg are utilized. Plasmodium cynomolgi (strain B) sporozoites are prepared by grinding heavily infected Anopheles dirus salivary glands in 1:1 monkey serum-saline vehicle.
# Monkeys are infected by I.V. injection of 10^6 freshly isolated P. cynomolgi sporozoites on day 0. A rapidly rising parasitemia develops after a 7 to 9 day prepatient period, and administration of the test drug is initiated when the rising parasite count exceeds 5000 per mm^3 (typically day 10-12). Test drugs are administered orally (by nasogastric intubation) once daily for 7 consecutive days in aqueous solution or, if insoluble, in suspension in 0.3% methylcellulose solution. Chloroquine diphosphate (3.1 mg of base/kg orally per day) is always administered concurrently with the test drug for 7 days to eliminate blood schizonts. Thus any tissue schizonticidal activity of the test drug will always be apparent even if it lacks blood schizonticidal activity.
# A vehicle control monkey and a positive drug control (primaquine) monkey are included in each group of inoculated monkeys.
# The effect of the test drug is determined by counting blood parasites. Parasite counts are made daily through day 20, and every two days thereafter. Initially a clearance of blood parasites is observed due to the blood schizonticidal action of chloroquine. […] If there is no relapse within 20 days of the initial clearance of parasitemia, the monkey is splenectomized and its parasitemia followed for an additional 30 days. If there is no relapse within this period, the experiment is terminated and the monkey is considered "cured". Alternately, in some experiments, negative parasitemia was followed for 100 days without prior splenectomy. It has been determined that the splenectomy and non-splenectomy methods yield virtually identical results.
# Primaquine diphosphate cures over 90% of monkeys in this test system when administered at a dose of 1.3 mg/kg of salt per day for 7 days ([…]) in combination with chloroquine.
# [2] = test system: Plasmodium berghei KBG 173; assay: animal or person; type: in vivo, young ICR/HA Swiss mice; conditions: for minimal effective dose: Plasmodium berghei, in Mus musculus; for suppressive activity in words: Rane mouse test; for ΔMST / Activity in words / Toxicity in words: 5 mice; for Activity in words / Toxicity in words: Rane, 20-640 mg/kg
# Text: Blood Schizonticidal Test (Mouse), University of Miami, Rane (suppressive)
# This system is based on comparisons of responses to test compounds by Plasmodium berghei KBG 173 malaria in mice as expressed in mean survival times and the mean survival times of untreated controls. Thus, compounds noted as active produce increases in the survival times of the treated animals that are significant when compared with the survival times of untreated controls. Since an established disease is less sensitive to treatment than a disease in the early stages of development, treatment is withheld until the parasitemia is relatively high in order to insure a more reliable assay of activity and the selection of appropriate compounds for intensive preclinical studies.
# Utilizing young ICR/HA Swiss mice and a standard inoculum of Plasmodium berghei KBG 173, it is possible to produce a uniform disease fatal to 100% of untreated animals within 6 to 8 days with a mean survival time of 6.2 days. Test animals weigh from 18 to 22 grams but weight variations in any given experimental or control group are confined to 2 to 3 grams. All animals in any given test are approximately of the same age. Animals on test are housed in metal-topped plastic cages, given a standard laboratory diet and water ad libitum.
# Test animals receive an intraperitoneal injection of 0.5 ml of 1:100 dilution of heparinized heart's blood with a minimum of 90% parasitized cells (4×10^7 cells), drawn from donor mice infected one week earlier with Plasmodium berghei. The donor strain is maintained by weekly passages in separate groups of mice inoculated with a 0.5 ml of 1:500 dilution of heparinized heart's blood.
# Test compounds are administered after dissolution or suspension in peanut oil. A single dose is given subcutaneously 72 hours after the mice are infected with Plasmodium berghei. At this time a 10-15 percent parasitemia has developed; the disease is well established but has not produced sufficient debility to alter the response of the host to toxic effects of the drug on test. Since treatment is withheld for three days to permit the infection to become well established and death occurs in untreated controls within 6 to 8 days, it is believed that this system presents a candidate compound with the maximum challenge. In order to check factors such as changes in the infectivity of Plasmodium berghei or in the susceptibility of the host or to detect technical errors, a group of infected animals treated with pyrimethamine at dose levels producing definite increases in survival time is included as a positive control in every experiment.
# In each experiment test compounds are administered in graded doses. […] However, if an active drug is toxic for the host, its toxicity may become a limiting factor; continued increases in dose levels also increase the toxic effects and may result in the diminution of survival times. Deaths prior to the sixth day, when untreated controls begin to die, are regarded as non-parasitic and become the basis for the interpretation that the drug is toxic. Treated animals are kept under observation for 60 days. Survivors at the end of this period of time are considered as cured.
# An increase of 100% in mean survival time is considered the minimum effective response for a candidate compound. In calculating mean survival time, toxic deaths and 60 day survivors are not included.
# [3] = test system: methemoglobin; type: in vivo, Dog
# Experimental: ^a Primaquine, Comparative Compound, or Compound X, were administered
# orally by capsule for four days on days 0, 1, 2 and 3 at a dose of 3 mg/k
# primaquine base per day or the molar equivalent.
# ^e Total methemoglobin production expressed as mg of MHb/ml of
# blood/hr for a total of 2 days after administration of the first dose.
# ^f Area under the % methemoglobin versus time curve (AUC).
# [4] = test system: P. berghei yoelli; assay: Causal prophylactic activity against sporozoite induced P. berghei yoelli in the mouse; type: in vivo; conditions: subcutaneous
# [5] = Acute toxicity in the rat by oral or intraperitoneal administration; conditions: Rat
# [6] = test system: Chesson strain of P. vivax; assay: Antimalarial activity against (trophozoite-induced) infections of the Chesson strain of P. vivax in the Aotus monkey; type: in vivo
# [7] = P. cynomolgi, 0.316 mg/kg (× 7)
# [8] = Table 1, P. berghei, Rane Mouse Test, 160 mg/kg
# [9] = text, listed as 5-(4-fluorophenoxy)-primaquine
# [10] = text, listed as 5-(4-fluorophenoxy)primaquine
# [11] = oral capsule, days 0-3, 3 mg/kg primaquine base per day or molar equivalent, means differ significantly (p <.05)
smiles,measurement,setting,value
"COc1cc(NC(C)CCCN)c2nccc(C)c2c1 (stereo not drawn) [4-methylprimaquine diphosphate, 4-methylprimaquine]","radical curative activity compared with primaquine, in words",[1],comparable to primaquine and somewhat greater in potentcy; also recorded: slightly more effective than primaquine
same,radical curative activity in words,[1]; 0.316 mg/kg,inactive
same,Cures,[1]; 1.0 mg/kg,100%
same,"Radical Curative Activity, Cures (C)",[1]; [7],0/4
same,"Radical Curative Activity, Cures (C)","[1]; P. cynomolgi, 1.0 mg/kg (× 7)",2/2
same,minimal effective dose,[2]; read-out: active dose (active only at),160 mg/kg
same,minimal effective dose,"[2]; curative only at this toxic dose, read-out: curative dose, suppressive test",640 mg/kg
same,suppressive activity in words,[2],very weak activity at non-toxic dose levels
same,ΔMST,[2]; [8],9 days
same,ΔMST,"[2]; Table 1, P. berghei, Rane Mouse Test, 320 mg/kg",10 days
same,ΔMST,"[2]; Table 4, 160 mg/kg",9 days
same,ΔMST,"[2]; Table 4, 320 mg/kg",10 days
"COc1cc(NC(C)CCCN)c2ncccc2c1Oc1ccc(F)cc1 (stereo not drawn) [5-(4-Fluorophenoxy)primaquine citrate, 5-(4-fluorophenoxy)-primaquine]","Radical Curative Activity, Cures (C)",[1]; [7],0/2
same,"Radical Curative Activity, Cures (C)","[1]; P. cynomolgi, 1.0 mg/kg (× 7)",1/3
same,"Radical Curative Activity, Cures (C)","[1]; P. cynomolgi, 3.16 mg/kg (× 7)",1/1
same,"radical curative activity compared with primaquine, in words",[1]; [9],no more active than primaquine in the Rhesus model as a radical curative drug
same,"radical curative activity compared with primaquine, in words",[1]; [10],not significantly better than that of primaquine
same,ΔMST,"[2]; Table 1, P. berghei, Rane Mouse Test, 80 mg/kg",7.0 days
same,ΔMST,[2]; [8],9 days
same,suppressive activity in words,[2]; [9],active (and non-toxic) in mice at the high dose levels of 320 and 640 mg/kg
same,suppressive activity in words,[2]; [10],not an effective suppressive drug
COc1cc(NC(C)CCCN)c2nc(O)cc(C)c2c1Oc1cccc(C(F)(F)F)c1 (stereo not drawn) [Analog 1],Activity in words,"[2]; Table 8, P. berghei",Inactive
same,Toxicity in words,"[2]; Table 8, P. berghei",non-toxic
COc1cc(NC(C)CCCN)c2nc(Oc3ccc(Cl)cc3)cc(C)c2c1Oc1cccc(C(F)(F)F)c1 (stereo not drawn) [Analog 2],Activity in words,"[2]; Table 8, P. berghei",Inactive
same,Toxicity in words,"[2]; Table 8, P. berghei",non-toxic
COc1cc(NC(C)CCCN)c2nc(OCc3ccc(Cl)cc3)cc(C)c2c1Oc1cccc(C(F)(F)F)c1 (stereo not drawn) [Analog 3],Activity in words,"[2]; Table 8, P. berghei",Inactive
same,Toxicity in words,"[2]; Table 8, P. berghei",non-toxic
COc1cc(NC(C)CCCN)c2nc(Cl)cc(C)c2c1Oc1cccc(C(F)(F)F)c1 (stereo not drawn) [Analog 4],Cures (C),"[1]; P. cynomolgi, 0.1 mg/kg (×7)",0/1
same,Cures (C),"[1]; P. cynomolgi, 0.316 mg/kg (×7)",1/2
same,Cures (C),"[1]; P. cynomolgi, 1.0 mg/kg (×7)",2/2
same,Cures (C),"[2]; Table 8, number of 5 mice, 160 mg/kg",1
"COc1cc(NC(C)CCCN)c2nccc(C)c2c1Oc1cccc(C(F)(F)F)c1.O=C(O)CCC(=O)O (stereo not drawn) [Comparative Compound, 8-[(4-amino-1-methylbutyl)amino]-6-methoxy-4-methyl-5-(3-trifluoromethylphenoxy)quinoline succinate]",Cures,"[1]; Table 2, P. cynomolgi, Rhesus, 0.0316 mg/kg × 7 of salt",0/2
same,Cures,"[1]; Table 2, P. cynomolgi, Rhesus, 0.10 mg/kg × 7 of salt",0/2
same,Cures,"[1]; Table 2, P. cynomolgi, Rhesus, 0.316 mg/kg × 7 of salt",2/2
same,Cures,"[1]; Table 2, P. cynomolgi, Rhesus, 1.0 mg/kg × 7 of salt",2/2
same,Molar Primaquine Index by Regression Analysis,"[1]; Table 2, ratio of molar ED50, relative to primaquine",6.8
same,increase of peak methemoglobin level versus Compound X,"[3]; Table 7, equimolar doses",56%
same,peak level of methemoglobin,"[3]; Table 7, equimolar doses",25%
same,Peak % MHb,[3]; [11],25.3 ± 8.30%
same,Slope of MHb Formation,[3]; [11],0.55 ± 0.28
same,Time of Peak MHb,[3]; [11],9.00 ± 1.73 days
same,MHb Disappearance Half-Time,"[3]; oral capsule, days 0-3, 3 mg/kg primaquine base per day or molar equivalent, no difference in the means",9.14 ± 2.42 days
same,MHb Production as AUC Corrected for Baseline,"[3]; total methemoglobin production, oral capsule, days 0-3, 3 mg/kg primaquine base per day or molar equivalent, means differ significantly (p <.05)","14,566 ± 5,475 mg of MHb/ml of blood/hr"
same,ΔMST,"[2]; Table 4, 5 mg/kg",6 days
same,ΔMST,"[2]; Table 4, 10 mg/kg",4 days
same,ΔMST,"[2]; Table 4, 20 mg/kg",10 days
same,Cures,[4]; 2.5 mg/kg of salt,6/15
same,Cures,[4]; 10 mg/kg of salt,8/20
same,Cures,[4]; 40 mg/kg of salt,13/15
same,Cures,[4]; 160 mg/kg of salt,5/5
same,LD50 (95% Confidence Limit),"[5]; female, I.P.",54 (42-71) mg/kg (Salt)
same,LD50 (95% Confidence Limit),"[5]; female, oral",401 (368-447) mg/kg (Salt)
same,LD50 (95% Confidence Limit),"[5]; male, I.P.",86 (65-109) mg/kg (Salt)
same,Cures,[6]; 1 mg/kg × 3 of base,1/3
same,Cures,[6]; 2 mg/kg × 3 of base,5/5
same,Cures,[6]; 4 mg/kg × 3 of base,4/4
same,Cures,[6]; 16 mg/kg × 3 of base,3/3

# Reference: patent publication US4617394A, “4-methyl-5-(unsubstituted and substituted phenoxy)-2,6-dimethoxy-8-(aminoalkylamino) quinolines” (priority 1985, dated 1986)
